melting point [°C] | Structure (SMILES)
195 to 197 | CC(=O)NC(C)Cc1cc2c(cc1CC(=O)O)OCO2 (stereo not given)
169 to 170 | CC(=O)OCCn1c(C(=O)Nc2ccc(OCC(C)(C)C)c(C#N)c2)cc2ccccc21
249 to 252 | CC(C)c1ccc(N2C(=O)CN(c3cccc(C(=O)O)c3)C2=O)cc1
72 to 73 | CC(C)Cn1c(=O)n(C)c(=O)c2cc(Cc3ccccc3)sc21
124 | COc1ccc2ncn(C3CCN(C(C)c4ccccc4)CC3)c(=O)c2c1 (stereo not given)
142 to 143 | CC(C(=O)O)c1ccc2c(c1)C(=O)Cc1ccc(Cl)cc1S2 (stereo not given)
77 to 79 | CC(=O)Cc1ccc2oc(C(=O)O)c(C)c2c1
142 to 146 | CCCc1c(OCCC(=O)O)ccc(C(C)=O)c1O
190 to 192 | Oc1ccc2c(Cl)cc(-c3ccccc3)nc2c1
148 to 149 | CC(=O)c1ccc(/C=C(\C)c2ccc3c(c2)C(C)(C)CCC3(C)C)cc1
125 to 126 | CCCOCCOC(=O)C1=C(C)NC(C)=C(P(=O)(OC(C)C)OC(C)C)C1c1cccc([N+](=O)[O-])c1 (stereo not given)
301 | CNc1nc(Nc2ccc(Cl)c(Cl)c2)ncc1N1C(=O)CNC1=O
126 to 128 | Cc1c(SCc2ccco2)ccnc1CSc1ccncc1
337 to 339 | C[C@H](NC(=O)c1c[nH]c2ncc(-c3cn(-c4cccc(Cl)c4)cn3)nc12)C(C)(C)C
86 to 87 | Cc1oc(-c2ccco2)nc1COc1ccc(Cn2cc(CCC(=O)O)c(-c3ccccc3)c2)cc1
241 to 242 | CC(=O)Nc1ccc(SSc2ccc(NC(C)=O)cc2C(=O)NC(CC(C)C)C(=O)O)c(C(=O)NC(CC(C)C)C(=O)O)c1 (stereo not given)
49.5 to 51.2 | COc1ccc(NC(=O)c2ccccc2OC)cc1
89 to 90 | CCOC(=O)c1cccc(-c2ccc(F)c3cc(CO)sc23)c1
180 | Cc1ccccc1Oc1cccc(NC(=O)c2ccn3c2CSC3c2cccnc2)c1 (stereo not given)
139 to 140 | CCOC(=O)c1nn(C(=O)Nc2ccccc2)c(C)c1C
124 to 125 | Cc1oc(-c2ccccc2)nc1CCOc1ccc(CC(C(=O)O)c2ccccc2)cc1 (stereo not given)
242 to 250 | CC(C)C(C)NC1=NS(=O)(=O)c2cc(Cl)c(Cl)cc2N1 (stereo not given)
225 to 227 | CCCc1cc(OCc2ccc(C(=O)O)cc2)c2ccccc2n1

melting point [°C] | Structure (SMILES)
218 to 219 | CNC(=O)C(Cc1ccc(OC)cc1)NC(=O)C(CC(C)C)C(CC(=O)NCC(N)=O)SC(C)=O (stereo not given)
243 to 244 | O=C(NCc1ccccc1O)c1[nH]c2ccc(Cl)cc2c1S(=O)(=O)c1ccccc1
169 to 172 | O=[N+]([O-])c1c(Nc2ccc(O)cc2)ncnc1-c1ccc(C(F)(F)F)cc1F
146 to 147 | CC(=O)NCC(=O)Nn1cccc1C(=O)c1ccccc1F
134 to 136 | CCOC(=O)c1cnc(-c2ccccc2OC(C)CC)[nH]c1=O (stereo not given)
203 to 204 | Cc1cc(C)nc(NC(=S)NS(=O)(=O)c2ccccc2-c2ccccc2)n1
215 to 216 | COc1ccc(Oc2c(SCc3ccccc3)cc(C(=O)O)cc2S(N)(=O)=O)cc1
102 to 104 | COC(=O)CC(=O)Nc1cccc(COc2ccc(C(C)=O)c(F)c2)c1
127 to 131 | CC(C)NCCNc1nc(Nc2cccc(NS(C)(=O)=O)c2)nc2[nH]ccc12
186 to 192 | Nc1ccc(O)cc1/C=C/C(=O)CC(=O)/C=C/c1ccc(O)cc1
222 | C=CCOC1=NC2OC(C(=O)c3ccc(Cl)cc3Cl)=C(NC(N)=O)C2C=C1 (stereo not given)
145 to 149 | CN(Cc1cc2c(=O)c(C(=O)NCc3ccc(Cl)cc3)cn(C)c2o1)CC(O)c1cccnc1 (stereo not given)
193 to 195 | O=C(CC1C(=S)Nc2ccccc21)NCc1ccccc1 (stereo not given)
216 to 218 | CCOC(=O)c1nn(-c2ccccc2)c(=O)c2c1c1ccc(Cl)cc1n2C
164 to 166 | C=CCOC(=O)Cn1c(=O)n(S(=O)(=O)c2ccc(Cl)cc2)c(=O)c2ccccc21
140 to 142 | CCCN1C(=O)C(=O)c2cc(SCCCc3ccc(C(=O)O)cc3)ccc21
225 to 227 | CCNc1nnc2ccc(-c3cccc(N(C)C(C)=O)c3)nn12
273 to 275 | CNc1ccc(-c2cnc3[nH]cc(C(=O)C4(C)CCCCC4)c3n2)cc1
128 to 129 | CC(=O)N(O)C(C)c1ccc(C#Cc2cccs2)cc1 (stereo not given)
245 to 247 | O=C(O)C1(c2ccc(Nc3nc(N4CCCC4)nc4c3CCC4)cc2)CCC1
149 to 151 | S=C(Nc1cc(Cl)cc(Cl)c1)Nc1cc(OCc2cccc3ccccc23)ccc1Br
137 to 140 | COc1cccc(C(=O)Nc2ccc(N3CCCC3)cc2C(C)=O)c1OC
84 to 122 | CC(C)CC(NC(=O)C(Cc1ccccc1)NC(=O)C1CCCCC1C(=O)O)C(=O)O (stereo not given)

Continued, compound first:

Structure (SMILES) | melting point [°C]
OC(CSc1ccc(Cl)cc1)Cn1ccnc1 (stereo not given) | 108 to 109
Cn1c(C(F)(F)F)cc(=O)n(-c2cc([N+](=O)[O-])c(Br)cc2F)c1=O | 124 to 125
Cc1ccc(S(=O)(=O)NC(=O)c2nc(Cl)c(Cl)[nH]2)cc1 | 238
O=S(=O)(Nc1cccc(Cl)c1F)c1cc(S(=O)(=O)Nc2cccc(Cl)c2F)c2cc(O)ccc2c1 | 126 to 128
CN=C(O)c1cc([N+](=O)[O-])cc([N+](=O)[O-])c1C(=O)O | 174 to 176
COc1ccc(C2(C#N)CC2)cc1OC1CCCC1 | 80.4
Nc1cccc(NC(=O)C(F)(F)C(F)(F)F)c1 | 86 to 88
CCCCN1C(=O)C(=O)C(C)=C(C#N)C1=O | 134 to 135
CC(C)(C)OC(=O)NCCCCCCO | 36 to 37
Cc1nnc(S(=O)(=O)C(Br)(Br)Br)s1 | 169 to 173
COC(=O)NC1=NC(c2cccc(C(F)(F)F)c2)CN1 (stereo not given) | 173 to 174
O=C(COC1CCCCO1)c1ccccn1 (stereo not given) | 63 to 65
CC1(C)c2ccccc2N2Cc3cc(N=Nc4ccc([N+](=O)[O-])cc4)ccc3OC21C (stereo not given) | 156
CCNCC1CN(c2c(F)cc3c(=O)c(C(=O)O)cn(C4CC4)c3c2F)CC1C (stereo not given) | 224 to 226
N#CC1=C(C2CCCCCC2)Nc2n[nH]cc2C1c1cccc(C#N)c1Br (stereo not given) | 252
COc1ccc2c(c1)C(=O)C1CCCCN1C2 (stereo not given) | 117 to 119
C#Cc1cc(Cl)cc2nc(Cc3cc(C(C)(C)C)c(O)c(C(C)(C)C)c3)oc12 | 152 to 155
Cc1cc(Cl)cc(C(=O)N(Cc2ccccc2)C2(C)CNC2)c1NC(=O)c1cc(C(F)(F)F)nn1-c1ncccc1Cl | 127 to 130
O=C1NCCc2ccc(OCCCCN3CCCN(c4cccc(Cl)c4Cl)CC3)cc21 | 86 to 88
Cn1c(C(F)(F)F)ccc(-c2cc(CBr)c(Cl)cc2F)c1=O | 117 to 118
Cc1noc(NC(=O)N2CCN(c3nccc(-c4cccc(F)c4)n3)CC2)c1C | 161 to 162
O=C1NN=CC1=CNCCC(F)=C(F)F | 126 to 130
C=C1c2ccccc2C=Cn2c(OC)nnc21 | 160 to 161
O=Cc1ccc2cc3ccccc3cc2c1 | 201 to 202
Cc1cc(NS(=O)(=O)c2cccs2)c2[nH]c(C3=NCCS3)cc2c1C | 201 to 202
O=C(O)CCCCc1cccc2cncn12 | 161 to 163
CCCC1CCC(C#Cc2ccc(OCC)c(F)c2F)CC1 (stereo not given) | 64

Structure (SMILES) | melting point [°C]
C=CC(=O)OCc1cn(CCCCCCCCCCCCCCCC)nn1 | 72 to 73
COc1ccc(-c2nc(C(F)(F)F)c[nH]2)cc1 | 204 to 206
NCCCCCCc1ccc(Cl)cc1 | 71
Cn1c(=O)c2[nH]c(C=Cc3cccc(C(F)(F)F)c3)nc2n(C)c1=O | > 300
COc1ccc(C(=O)CCC2CCN(C(C)=O)CC2)cc1N | 101 to 103
CC(C)(C)OC(=O)CNC(=O)c1nc2cc(Cl)ccc2o1 | 152 to 154
C=C1CCC(c2ccc(N3CC(COC)OC3=O)cc2)CC1 (racemic) | 63 to 65
NC(=O)C1CCN(c2c(Cl)cncc2Cl)C1 (stereo not given) | 161 to 163
NC(=O)c1cc2cc(Br)ccc2o1 | 210 to 213
CC(=O)NCC1OCC(Cc2ccc(Cl)cc2)CO1 (stereo not given) | 95
O=c1[nH]c(=O)n(C2CC2)c2c(OC(F)F)c(F)ccc12 | 215 to 221
Cc1ccsc1C=Cc1nccn1C | 287 to 288
N#Cc1ccc(NC(=O)NC(=O)c2ccccc2Cl)c(Cl)c1Cl | 278 to 282
CC1CCCN1CCCN1CCN(CCN2CCCC2C)C1=C(C#N)C#N (stereo not given) | 69 to 71
Cc1ccc(S(=O)(=O)OC2CC(=O)N(Cc3ccccc3)C2)cc1 (stereo not given) | 83 to 84
NCCNc1cc(NCCO)c(Cl)cc1[N+](=O)[O-] | 160
CC(C)(C)c1ccc(Sc2ccc([N+](=O)[O-])cc2)cc1 | 65 to 66
O=C(NCC1CCCC1)NCC1CCCC1 | 162 to 164
CS(=O)(=O)c1ccc(-c2cnn(Cc3ccccc3)c(=O)c2-c2ccc(Cl)c(Cl)c2)cc1 | 161 to 163
COc1ccc(N(C)CCN(C)CCCN2CCc3cc(OC)c(OC)cc3NC2=O)cc1OC | 117 to 119
Cc1cc([N+](=O)[O-])ccc1Oc1ccc(C(C)(C)c2cccc(C(C)(C)c3ccc(Oc4ccc([N+](=O)[O-])cc4C)cc3)c2)cc1 | 116 to 118
Cc1cc(C)c2c(c1C)OCC2c1cccc(Br)c1 (stereo not given) | 73 to 74
CCCC1(OC(C)=O)CCC2C3CCC4CC(=O)CC(C)C4(C)C3CCC21C (stereo not given) | 128 to 129
CN(C)c1onc2c1c(=O)n(C)c(=O)n2C | 188 to 190
N#Cc1cc(NC(=O)c2csc3c2CCCC3)ccc1N1CCC(O)CC1 | 172 to 173
CC(C)N1CC2CC(CN(C(=O)Cc3ccc([N+](=O)[O-])cc3)C2)C1 | 93 to 94
Cc1cc(-c2nc3c(Cl)cccc3c(=O)[nH]2)cc(C)c1OCCN1CCCC1 | 216 to 217

From a melting point compilation (Tetko et al.; mined from patent text by program, amines drawn as free bases though some values may be those of a salt)
